# Reference: patent US20230085307A1, “PYRIDAZINONE COMPOUND AND HERBICIDE” (NISSAN CHEMICAL CORPORATION, priority 2019, published 2023)
# Test system: persian speedwell
# Assay: Test Example 5: herbicidal effect by foliage application, plastic box (Table 20, symbol R)
# Format: in vivo, Persian speedwell (Veronica persica)
# Settings: foliage application, AAH 320 g/ha, evaluated three weeks after application
# In short: (§1)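 Sow seeds spot-wise in sterilized diluvial soil; cover with ~1.5 cm soil. Grow 14 days in greenhouse, 25° C. to 30° C. Spray foliage with emulsion diluted to predetermined amount. Rate effect after 3 weeks.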
row,Compound,"R: persian speedwell, herbicidal effect (criteria 0-5)"
1,Cc1nn(C)c(=O)c(-c2c(-c3ccc([S+]([O-])C(C)C)cc3)sc3ccc(F)cc23)c1O (stereo not drawn) [2-257],5 (Herbicidal rate of 90% or more (almost completely withered))
2,Cc1nn(C)c(=O)c(-c2c(-c3ccc(S(C)(=O)=O)cc3)sc3ccc(F)cc23)c1O [2-258],5 (Herbicidal rate of 90% or more (almost completely withered))
3,Cc1nn(C)c(=O)c(-c2c(-c3ccc(OC(F)F)cc3)sc3ccc(F)cc23)c1OC(=O)c1ccc(Cl)cc1 [2-286],5 (Herbicidal rate of 90% or more (almost completely withered))

# Test system: southern crabgrass
# Assay: Test Example 4: herbicidal effect by soil treatment (Table 19, symbol F)
# Format: in vivo, southern crabgrass (Digitaria ciliaris)
# Settings: amount of applied herbicide 320 g/ha
# In short: (§2)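 Soil-surface application: an emulsion agent diluted with water to the predetermined dose is sprayed uniformly over seeds lying under roughly 1.5 cm of sterilized diluvial soil. Boxes stay in a greenhouse at 25° C. to 30° C. Three weeks later, each species is graded on previously defined criteria.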
row,Compound,herbicidal effect on F: southern crabgrass
1,Cc1nn(C)c(=O)c(-c2c(-c3ccc([S+]([O-])C(C)C)cc3)sc3ccc(F)cc23)c1O (stereo not drawn) [2-257],3 (Herbicidal rate of 40% or more and less than 70%)
2,Cc1nn(C)c(=O)c(-c2c(-c3ccc(S(C)(=O)=O)cc3)sc3ccc(F)cc23)c1O [2-258],4 (Herbicidal rate of 70% or more and less than 90%)
3,Cc1nn(C)c(=O)c(-c2c(-c3ccc(OC(F)F)cc3)sc3ccc(F)cc23)c1OC(=O)c1ccc(Cl)cc1 [2-286],0 (Herbicidal rate of 5% or less (almost no effect))

# Test system: blackgrass
# Assay: Test Example 4: herbicidal effect by soil treatment (Table 19, symbol J)
# Format: in vivo, blackgrass (Alopecurus myosuroides)
# Settings: amount of applied herbicide 320 g/ha
# In short: as §2
row,Compound,herbicidal effect on J: blackgrass
1,Cc1nn(C)c(=O)c(-c2c(-c3ccc([S+]([O-])C(C)C)cc3)sc3ccc(F)cc23)c1O (stereo not drawn) [2-257],1 (Herbicidal rate of 5% or more and less than 20%)
2,Cc1nn(C)c(=O)c(-c2c(-c3ccc(S(C)(=O)=O)cc3)sc3ccc(F)cc23)c1O [2-258],5 (Herbicidal rate of 90% or more (almost completely withered))
3,Cc1nn(C)c(=O)c(-c2c(-c3ccc(OC(F)F)cc3)sc3ccc(F)cc23)c1OC(=O)c1ccc(Cl)cc1 [2-286],0 (Herbicidal rate of 5% or less (almost no effect))

# Test system: velvetleaf
# Assay: Test Example 4: herbicidal effect by soil treatment (Table 19, symbol M)
# Format: in vivo, velvetleaf (Abutilon theophrasti)
# Settings: amount of applied herbicide 320 g/ha
# In short: as §2
row,Compound,herbicidal effect on M: velvetleaf
1,Cc1nn(C)c(=O)c(-c2c(-c3ccc([S+]([O-])C(C)C)cc3)sc3ccc(F)cc23)c1O (stereo not drawn) [2-257],3 (Herbicidal rate of 40% or more and less than 70%)
2,Cc1nn(C)c(=O)c(-c2c(-c3ccc(S(C)(=O)=O)cc3)sc3ccc(F)cc23)c1O [2-258],3 (Herbicidal rate of 40% or more and less than 70%)
3,Cc1nn(C)c(=O)c(-c2c(-c3ccc(OC(F)F)cc3)sc3ccc(F)cc23)c1OC(=O)c1ccc(Cl)cc1 [2-286],0 (Herbicidal rate of 5% or less (almost no effect))

# Test system: green foxtail
# Assay: Test Example 4: herbicidal effect by soil treatment (Table 19, symbol G)
# Format: in vivo, green foxtail (Setaria viridis)
# Settings: amount of applied herbicide 320 g/ha
# In short: as §2
row,Compound,herbicidal effect on G: green foxtail
1,Cc1nn(C)c(=O)c(-c2c(-c3ccc([S+]([O-])C(C)C)cc3)sc3ccc(F)cc23)c1O (stereo not drawn) [2-257],2 (Herbicidal rate of 20% or more and less than 40%)
2,Cc1nn(C)c(=O)c(-c2c(-c3ccc(S(C)(=O)=O)cc3)sc3ccc(F)cc23)c1O [2-258],5 (Herbicidal rate of 90% or more (almost completely withered))
3,Cc1nn(C)c(=O)c(-c2c(-c3ccc(OC(F)F)cc3)sc3ccc(F)cc23)c1OC(=O)c1ccc(Cl)cc1 [2-286],3 (Herbicidal rate of 40% or more and less than 70%)

# Test system: late watergrass
# Assay: Test Example 2: herbicidal activity, application during weed generation under submerged conditions (Table 17, symbol A)
# Format: in vivo, late watergrass (Echinochloa oryzicola)
# Settings: AAH 320 g/ha; application during weed generation, submerged conditions
# In short: (§3)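 Alluvial soil in Wagner pots was flooded to 4 cm depth and sown with the three weeds together; pots were kept in a greenhouse at 25° C. to 30° C. At the one to two leaf stage, an emulsion formulation diluted in water to a set rate went onto the water surface; scored three weeks later.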
row,Compound,"herbicidal effect rating, A: late watergrass"
1,Cc1nn(C)c(=O)c(-c2c(-c3ccc([S+]([O-])C(C)C)cc3)sc3ccc(F)cc23)c1O (stereo not drawn) [2-257],2 (Herbicidal rate of 20% or more and less than 40%)
2,Cc1nn(C)c(=O)c(-c2c(-c3ccc(S(C)(=O)=O)cc3)sc3ccc(F)cc23)c1O [2-258],4 (Herbicidal rate of 70% or more and less than 90%)
3,Cc1nn(C)c(=O)c(-c2c(-c3ccc(OC(F)F)cc3)sc3ccc(F)cc23)c1OC(=O)c1ccc(Cl)cc1 [2-286],3 (Herbicidal rate of 40% or more and less than 70%)

# Test system: Japanese bulrush
# Assay: Test Example 2: herbicidal activity, application during weed generation under submerged conditions (Table 17, symbol B)
# Format: in vivo, Japanese bulrush (Schoenoplectus juncoides)
# Settings: AAH 320 g/ha; application during weed generation, submerged conditions
# In short: as §3
row,Compound,"herbicidal effect rating, B: Japanese bulrush"
1,Cc1nn(C)c(=O)c(-c2c(-c3ccc([S+]([O-])C(C)C)cc3)sc3ccc(F)cc23)c1O (stereo not drawn) [2-257],0 (Herbicidal rate of 5% or less (almost no effect))
2,Cc1nn(C)c(=O)c(-c2c(-c3ccc(S(C)(=O)=O)cc3)sc3ccc(F)cc23)c1O [2-258],0 (Herbicidal rate of 5% or less (almost no effect))
3,Cc1nn(C)c(=O)c(-c2c(-c3ccc(OC(F)F)cc3)sc3ccc(F)cc23)c1OC(=O)c1ccc(Cl)cc1 [2-286],3 (Herbicidal rate of 40% or more and less than 70%)

# Test system: Italian ryegrass
# Assay: Test Example 5: herbicidal effect by foliage application, plastic box (Table 20, symbol K)
# Format: in vivo, Italian ryegrass (Lolium multiflorum)
# Settings: foliage application, AAH 320 g/ha, evaluated three weeks after application
# In short: as §1
row,Compound,"K: Italian ryegrass, herbicidal effect (criteria 0-5)"
1,Cc1nn(C)c(=O)c(-c2c(-c3ccc([S+]([O-])C(C)C)cc3)sc3ccc(F)cc23)c1O (stereo not drawn) [2-257],5 (Herbicidal rate of 90% or more (almost completely withered))
2,Cc1nn(C)c(=O)c(-c2c(-c3ccc(S(C)(=O)=O)cc3)sc3ccc(F)cc23)c1O [2-258],5 (Herbicidal rate of 90% or more (almost completely withered))
3,Cc1nn(C)c(=O)c(-c2c(-c3ccc(OC(F)F)cc3)sc3ccc(F)cc23)c1OC(=O)c1ccc(Cl)cc1 [2-286],5 (Herbicidal rate of 90% or more (almost completely withered))

# Test system: green foxtail
# Assay: Test Example 5: herbicidal effect by foliage application, plastic box (Table 20, symbol G)
# Format: in vivo, green foxtail (Setaria viridis)
# Settings: foliage application, AAH 320 g/ha, evaluated three weeks after application
# In short: as §1
row,Compound,"G: green foxtail, herbicidal effect (criteria 0-5)"
1,Cc1nn(C)c(=O)c(-c2c(-c3ccc([S+]([O-])C(C)C)cc3)sc3ccc(F)cc23)c1O (stereo not drawn) [2-257],4 (Herbicidal rate of 70% or more and less than 90%)
2,Cc1nn(C)c(=O)c(-c2c(-c3ccc(S(C)(=O)=O)cc3)sc3ccc(F)cc23)c1O [2-258],5 (Herbicidal rate of 90% or more (almost completely withered))
3,Cc1nn(C)c(=O)c(-c2c(-c3ccc(OC(F)F)cc3)sc3ccc(F)cc23)c1OC(=O)c1ccc(Cl)cc1 [2-286],5 (Herbicidal rate of 90% or more (almost completely withered))

# Test system: barnyard grass
# Assay: Test Example 4: herbicidal effect by soil treatment (Table 19, symbol H)
# Format: in vivo, barnyard grass (Echinochloa crus-galli)
# Settings: amount of applied herbicide 320 g/ha
# In short: as §2
row,Compound,herbicidal effect on H: barnyard grass
1,Cc1nn(C)c(=O)c(-c2c(-c3ccc([S+]([O-])C(C)C)cc3)sc3ccc(F)cc23)c1O (stereo not drawn) [2-257],4 (Herbicidal rate of 70% or more and less than 90%)
2,Cc1nn(C)c(=O)c(-c2c(-c3ccc(S(C)(=O)=O)cc3)sc3ccc(F)cc23)c1O [2-258],5 (Herbicidal rate of 90% or more (almost completely withered))
3,Cc1nn(C)c(=O)c(-c2c(-c3ccc(OC(F)F)cc3)sc3ccc(F)cc23)c1OC(=O)c1ccc(Cl)cc1 [2-286],1 (Herbicidal rate of 5% or more and less than 20%)

# Test system: redroot pigweed
# Assay: Test Example 4: herbicidal effect by soil treatment (Table 19, symbol N)
# Format: in vivo, redroot pigweed (Amaranthus retroflexus)
# Settings: amount of applied herbicide 320 g/ha
# In short: as §2
row,Compound,herbicidal effect on N: redroot pigweed
1,Cc1nn(C)c(=O)c(-c2c(-c3ccc([S+]([O-])C(C)C)cc3)sc3ccc(F)cc23)c1O (stereo not drawn) [2-257],5 (Herbicidal rate of 90% or more (almost completely withered))
2,Cc1nn(C)c(=O)c(-c2c(-c3ccc(S(C)(=O)=O)cc3)sc3ccc(F)cc23)c1O [2-258],4 (Herbicidal rate of 70% or more and less than 90%)
3,Cc1nn(C)c(=O)c(-c2c(-c3ccc(OC(F)F)cc3)sc3ccc(F)cc23)c1OC(=O)c1ccc(Cl)cc1 [2-286],4 (Herbicidal rate of 70% or more and less than 90%)

# Test system: wild oat
# Assay: Test Example 4: herbicidal effect by soil treatment (Table 19, symbol I)
# Format: in vivo, wild oat (Avena fatua)
# Settings: amount of applied herbicide 320 g/ha
# In short: as §2
row,Compound,herbicidal effect on I: wild oat
1,Cc1nn(C)c(=O)c(-c2c(-c3ccc([S+]([O-])C(C)C)cc3)sc3ccc(F)cc23)c1O (stereo not drawn) [2-257],0 (Herbicidal rate of 5% or less (almost no effect))
2,Cc1nn(C)c(=O)c(-c2c(-c3ccc(S(C)(=O)=O)cc3)sc3ccc(F)cc23)c1O [2-258],3 (Herbicidal rate of 40% or more and less than 70%)
3,Cc1nn(C)c(=O)c(-c2c(-c3ccc(OC(F)F)cc3)sc3ccc(F)cc23)c1OC(=O)c1ccc(Cl)cc1 [2-286],0 (Herbicidal rate of 5% or less (almost no effect))

# Test system: oval-leafed pondweed
# Assay: Test Example 2: herbicidal activity, application during weed generation under submerged conditions (Table 17, symbol C)
# Format: in vivo, oval-leafed pondweed (Monochoria vaginalis)
# Settings: AAH 320 g/ha; application during weed generation, submerged conditions
# In short: as §3
row,Compound,"herbicidal effect rating, C: oval-leafed pondweed"
1,Cc1nn(C)c(=O)c(-c2c(-c3ccc([S+]([O-])C(C)C)cc3)sc3ccc(F)cc23)c1O (stereo not drawn) [2-257],0 (Herbicidal rate of 5% or less (almost no effect))
2,Cc1nn(C)c(=O)c(-c2c(-c3ccc(S(C)(=O)=O)cc3)sc3ccc(F)cc23)c1O [2-258],3 (Herbicidal rate of 40% or more and less than 70%)
3,Cc1nn(C)c(=O)c(-c2c(-c3ccc(OC(F)F)cc3)sc3ccc(F)cc23)c1OC(=O)c1ccc(Cl)cc1 [2-286],3 (Herbicidal rate of 40% or more and less than 70%)

# Test system: lambsquarters
# Assay: Test Example 5: herbicidal effect by foliage application, plastic box (Table 20, symbol O)
# Format: in vivo, lambsquarters (Chenopodium album)
# Settings: foliage application, AAH 320 g/ha, evaluated three weeks after application
# In short: as §1
row,Compound,"O: lambsquarters, herbicidal effect (criteria 0-5)"
1,Cc1nn(C)c(=O)c(-c2c(-c3ccc([S+]([O-])C(C)C)cc3)sc3ccc(F)cc23)c1O (stereo not drawn) [2-257],5 (Herbicidal rate of 90% or more (almost completely withered))
2,Cc1nn(C)c(=O)c(-c2c(-c3ccc(S(C)(=O)=O)cc3)sc3ccc(F)cc23)c1O [2-258],5 (Herbicidal rate of 90% or more (almost completely withered))
3,Cc1nn(C)c(=O)c(-c2c(-c3ccc(OC(F)F)cc3)sc3ccc(F)cc23)c1OC(=O)c1ccc(Cl)cc1 [2-286],5 (Herbicidal rate of 90% or more (almost completely withered))
